In general, IC50 refers to the concentration needed to halve the response being measured.

SMILES strings stand for the structures.

This assay deals with T1, Angiotensin II Receptor (Bos taurus, UniProt P25104).
T1 construct: The brownish tissue forming the adrenal cortex is scraped off and finely minced with scissors before homogenization; tissue local slaughter house (maxwell-Cohen); host or cells: beef adrenal cortex, 100,000 x g microsomal membranes
T1 sequence (P25104 1-359): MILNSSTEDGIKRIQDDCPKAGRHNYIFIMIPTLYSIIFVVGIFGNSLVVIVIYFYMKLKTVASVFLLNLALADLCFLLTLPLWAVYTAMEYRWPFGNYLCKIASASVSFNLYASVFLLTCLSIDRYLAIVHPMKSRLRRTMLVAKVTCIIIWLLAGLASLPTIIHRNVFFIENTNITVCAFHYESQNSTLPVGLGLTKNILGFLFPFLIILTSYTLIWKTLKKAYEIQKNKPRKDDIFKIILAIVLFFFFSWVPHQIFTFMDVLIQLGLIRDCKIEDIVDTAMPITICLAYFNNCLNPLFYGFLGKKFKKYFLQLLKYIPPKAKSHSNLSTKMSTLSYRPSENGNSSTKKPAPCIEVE
The assay is described as follows: Receptor Binding Assay: displacement of [^125 I](Sar^1,Ile^8)AngII from adrenal cortex microsomal membranes. Further details: species or system beef (bovine adrenals). From the text: Beef adrenals are obtained from a local slaughter house (maxwell-Cohen). [^125 I](Sar^1,Ile^8)AngII, S.A. 2200 Ci/mmole, is purchased from Dupont (NEN®, Boston, Mass.). All unlabeled AngII analogs, Dimethylsulfoxide (DMSO), nucleotides, bovine serum albumin (BSA) are purchased from Sigma Chemical Co., St. Louis, Mo. U.S.A.
Approximately sixteen (16) to twenty (20) beef adrenal glands are processed as follows: fresh adrenal glands received on crushed ice are cleaned of fatty tissues and the tough membranes encapsulating the glands are removed and discarded. The brownish tissue forming the adrenal cortex is scraped off and finely minced with scissors before homogenization. Care is taken to avoid contamination with medullary tissue during dissection. The scraped cortices are suspended in twenty volumes of an ice-cold buffer medium consisting of 10 mM Tris.HCl (pH 7.4 at 22° C.) and containing 1.0 mM EDTA and 0.2M sucrose. Unless otherwise indicated, all subsequent operations are done at 4° C. […] The homogenate is centrifuged first at low speed (3,000× g) for 10 min. The resulting pellet is discarded and the supernatant fluid recentrifuged at 10,000× g for 15 minutes to give a P2 pellet. This P2 pellet is discarded and the liquid phase is carefully decanted off in clean centrifuge tubes and recentrifuged at high speed (100,000× g) for 60 min. The translucent final pellet is harvested and combined in a small volume (20-50.0 ml) of 50.0 mM Tris.HCl buffer, pH 7.2. A 100 ul aliquot is withdrawn and the protein content of the preparation is determined by the Lowry's method (Lowry, O. H., Rosebrough, N. F., Parr, A. L. and Randall, R. J., Protein measurement with Folin phenol reagent. J. Biol. Chem., 48, 265-275; 1951). The pelleted membrane is reconstituted in 50.0 mM Tris.HCl buffer containing 0.1 mM of phenylmethylsulfonyl fluoride (PMSF) to give approximately a protein concentration of 2.5 mg per ml of tissue suspension. The membrane preparation is finally aliquoted in 1.0 ml volumes and stored at -70° C. until use in the binding assays.
The binding of [^125 I](Sar^1,Ile^8)AngII to microsomal membranes is initiated by the addition of reconstituted membranes (1:10 vols.) in freshly made 50.0 mM Tris.HCl buffer, pH 7.4 containing 0.25% heat inactivated bovine serum albumin (BSA): 80 ul membrane protein (10 to 20 ug/assay) to wells already containing 100 ul of incubation buffer (as described above) and 20 ul [^125 I](Sar^1,ILE^8)AngII (Specific Activity, 2200 Ci/mmole). Non-specific binding is measured in the presence of 1.0 uM unlabeled (Sar^1,ILE^8)AngII, added in 20 ul volume. […] In competition studies, experimental compounds are diluted in dimethylsulfoxide (DMSO) and added in 20 ul to wells before the introduction of tissue membranes. […] Assays are performed in triplicate. The wells are left undisturbed for 60 min. at room temperature. Following incubation, all wells are harvested at once with a Brandel® Harvester especially designed for a 96 well plate (Brandel® Biomedical Research & Development Labs. Inc., Gaithersburg, Md., U.S.A.). The filter discs are washed with 10×1.0 ml of cold 0.9% NaCl to remove unbound ligand. […] This method is routinely used. The filters are removed from the filter grid and counted in a Parkard® Cobra Gamma Counter for 1 min. (Packard Instrument Co., Downers Grove, Ill., U.S.A.). The binding data are analyzed by the non-linear interactive "LUNDON-1" program (LUNDON SOFTWARE Inc., Cleveland, Ohio U.S.A.).
Turning to `CCCCc1nc2ccc([C@H]3[C@@H]4C(=O)OC[C@@H]4ON3C)cc2c(=O)n1Cc1ccc(-c2ccccc2-c2nnn[nH]2)cc1` (relative stereo) [Example 53], the half-inhibitory concentration (IC50) was found to be 71 nM.
In the case of `CCCCc1nc2ccc([C@H]3[C@@H]4C(=O)CC[C@@H]4ON3Cc3ccccc3)cc2c(=O)n1Cc1ccc(-c2ccccc2-c2nnn[nH]2)cc1` (relative stereo) [Example 55] it was 78 nM; in that of `CCCCc1nc2ccc([C@@H]3[C@H]4C(=O)CCC[C@H]4ON3C)cc2c(=O)n1Cc1ccc(-c2ccccc2-c2nnn[nH]2)cc1` (relative stereo) [Example 49], 880 nM; in that of `CCCCc1nc2ccc([C@H]3[C@@H]4C5CCC(C5)[C@@H]4ON3C)cc2c(=O)n1Cc1ccc(-c2ccccc2-c2nnn[nH]2)cc1` (stereo partly drawn) [Example 51], 150 nM.
In the case of `CCCCc1nc2ccc([C@H]3[C@@H]4C(=O)OC[C@@H]4ON3Cc3ccccc3)cc2c(=O)n1Cc1ccc(-c2ccccc2-c2nnn[nH]2)cc1` (relative stereo) [Example 57] it was 180 nM.
For the compound `CCCCc1nc2ccc([C@H]3[C@@H]4C(=O)CC[C@@H]4ON3C)cc2c(=O)n1Cc1ccc(-c2ccccc2-c2nnn[nH]2)cc1` (relative stereo) [Example 48], the half-maximal inhibitory concentration (IC50) was found to be 57 nM.

Source of the values: patent US5294611A, “Angiotensin II receptor blocking 2,3,6 substituted quinazolinones” (American Cyanamid Company, priority 1993, dated 1994).
